We go through two compounds from patent publication US6933316B2, “Indole compounds” (National Health Research Institutes, priority 2001, dated 2005).

For series [1], the system named is human cancer cells, including multi-drug resistant cancer cells. The note with it: wide variety of human cancer cells; cited from earlier work.
Series [2] deals with colchicine binding site on tubulin. The note with it: compared with colchicine; cited from earlier work.
A further series concerns angiogenesis. The note with it: cited from earlier work.
For series [3] the following is noted: cited from earlier work.
The next series relates to KB cell line. In words: Cell growth inhibition assay on human cancer lines, parental KB. In kind it is cell-based. The note with it: cell type Oral, read-out: Cytotoxicity against KB. Here is the method:
(§1) Cell Growth Inhibition Assay: MCF-7 breast carcinoma cells were maintained in plastic dishes in DMEM medium supplemented with 10% fetal bovine serum. For in vitro treatment, tumor cells were seeded in […] of culture medium/well in 96-well plates to a final cell density of 6×10^3 cell/mL and incubated in a CO2 incubator at 37° C. for 24 h. The cells were treated with at least five different concentrations of a test indole compound, and incubated in a CO2 incubator at 37° C. for 72 h. The number of viable cells was estimated using MTS assay and absorbance was measured at 490 nm. Cytotoxicity of the test compounds was expressed in terms of IC50 values. The values presented represent averages of three independent experiments, each with duplicate samples.
(§2) Cell Growth Inhibition Assay on Multiple-drug Resistant Human Cancer Lines: Indole compounds were tested against several panels of drug-resistant cell lines. It is well known that several anti-mitotic agents, including vinca alkaloid (vincristine, vinblastine) and taxol, have been introduced in clinic to treat various human cancers. […] The mechanisms responsible for taxol resistance include overexpression of p-glycoprotein and mutation of tubulin. For comparison, […] anti-mitotic agents, i.e., Vincristine, VP-16, Cisplatin, CPT (camptothecin), and Taxol (paclitaxel) were also tested against several panels of drug-resistant cell lines. […]

For the next series, the system named is HONE-1 cell line. In words: Cell growth inhibition assay on human cancer lines, parental HONE-1. In kind it is cell-based. The note with it: NPC, read-out: Cytotoxicity against HONE-1. Here is the method: as §1, §2

On to `COc1ccc(/C=C\c2cc(OC)c(OC)c(OC)c2)cc1O` [CA-4, combretastatin A-4], for which the “Cytotoxicity against human cancer cells” value in series [1] is given as “strong cytotoxicity”. For the same compound, the “Affinity for the colchicine binding site on tubulin relative to colchicine” value in series [2] is “higher affinity for the colchicine binding site on tubulin than colchicine itself”. Also, in the series on angiogenesis, the Anti-angiogenesis activity entry is reported as “anti-angiogenesis activity”. In series [3], the Water-solubility entry is reported as “low water-solubility”.

For `N.N.[Cl][Pt][Cl]` [Cisplatin], the IC50 in the series on KB cell line worked out at 0.003 µM; in the series with HONE-1 cell line it was 3 µM.
